Experiments:
cerebral arteries = test: cerebral haemodynamics of migraine patients (pulsatility of cerebral arteries); format: in vivo
Method: The first clinical pharmacological investigation consisted of exploring the cerebral haemodynamics of migraine patients by a non-invasive method, through recording the pulsatility of the cerebral arteries. […] Graphs were thus plotted after the benzamide according to the invention had been absorbed by migraine patients.
This is maintained under treatment with repeated doses (150 mg/day) given orally for 3 weeks.

serotonin [1] = test: gastric ulcer producing effect of serotonin in the rat; format: in vivo; settings: sc, subcutaneously, read-out: effective dose 50 (protection against gastric ulcer producing effect of serotonin)
mouse [2] = test: spontaneous motility of mouse, WINTER & FLATAKER method; format: in vivo
Text: The researchers were looking for the effects of the benzamide on the central nervous system and particularly for any neuroleptic action.
(§1) Spontaneous motility of mouse:
(§2) inhibiting effect observed at
(§3) maximum dose administered
(§4) Adminis- WINTER & Activograph

isolated uterus = test: serotonin-induced contraction of isolated uterus; settings: isolated uterus of a rat, contraction produced by serotonin
Method: inhibited contraction of the isolated uterus of a rat, produced by serotonin. The contraction inhibiting dose 50 is of the order of 0.2 mg/l.

serotonin [3] = test: hypertensive response to serotonin, anaesthetised dog treated with chlorisondamine; format: in vivo
Text: (§5) The effects of the benzamide on the cardiovascular system were studied in a dog anaesthetised with chloralose, with the following results:
% inhibition of hypertension after […]

[4] = anticonvulsive action (electric shock, pentetrazol, nicotine, auditory stimulus); format: in vivo; settings: nicotine or auditory stimulus
histamine = test: interaction with histamine, isolated ileum of guinea pig
Text: Finally, researchers looked for interaction between the benzamide according to the invention and histamine, in the arterial pressure of an anaesthetised dog and the isolated ileum of a guinea pig.

carotid arteries = test: hypertensive response to blocking of carotid arteries, anaesthetised dog; format: in vivo; settings: for % reduction relative to control hypertension (R): blocking of carotid arteries for 30 seconds
Text: (§6) The effects of the benzamide on the cardiovascular system were studied in a dog anaesthetised with chloralose, with the following results: […]

mouse [5] = test: analgesic action, pain caused by mechanical, chemical or heat stimulus; format: in vivo; settings: single dose
Text: The analgesic action of the benzamide, in a single dose, is weak in respect of the pain caused in a mouse by a mechanical, chemical or heat stimulus.

migraine [6] = test: comparative study with Pizotifene in migraine; format: in vivo; settings: 17 migraine patients, 150 mg per day orally
Method: (2) A comparative study with Pizotifene, an anti-histamine and antiserotonin compound which is also used in the basic treatment for migraine.
The study covered 17 patients suffering true attacks of migraine of regular frequency, which thus enabled the effectiveness of the treatment to be assessed from the number and intensity of attacks during a period of one month.
The benzamide according to the invention was applied orally in a dose of 150 mg per day, in three times. The Pizotifene was also administered orally, with the progressive dosage recommended for the product (0.73 mg×1 for 3 days-0.73 mg×2 for 3 days-0.73 mg×3 for 24 days).
The patients were distributed at random between the treatments.

noradrenalin = test: hypertensive response to noradrenalin, anaesthetised dog; format: in vivo; settings: for % reduction relative to control hypertension (R): noradrenalin
Text: as §5
Noradrenalin 0.5 R = 21%

[7] = tested on: hypotensive response to acetylcholine or to excitation of the vagus nerve; test: hypotensive response to acetylcholine or excitation of the vagus nerve, anaesthetised dog; format: in vivo
Text: as §6

adrenalin = test: hypertensive response to adrenalin, anaesthetised dog; format: in vivo; settings: for % reduction relative to control hypertension (R): adrenalin
Text: as §6

mice = test: duration of barbituric (pentobarbital) hypnosis; format: in vivo, mouse
Method: Adminis- Dose Time of hypnosis, mice treated
Product tration mg/kg Time of hypnosis, control mice
N.B. The barbiturate used is pentobarbital in a dose of 60 mg/kg given

nicotine = test: hypertensive response to nicotine (orthosympathetic component), anaesthetised dog; format: in vivo; settings: for % reduction of orthosympathetic component (R): nicotine
Text: as §6

migraine [8] = test: comparative crossed double blind study versus oxetorone in migraine; format: in vivo; settings: 63 migraine patients, 150 mg per day vs oxetorone 120 mg, 30 days
Text: (1) A comparative study, by a crossed double blind method, the reference product being oxetorone, which is medically known, applied to migraine. The study covered 63 migraine patients, the two treatments being applied for 30 days with an adequate interruption between sequences.

mouse [9] = test: spontaneous motility of mouse, Activograph method; format: in vivo; settings: read-out: inhibiting effect on spontaneous motility at maximum dose administered
Text: as §1, §2, §3, §4

migraine [10] = test: open investigation in migraine out-patients; format: in vivo; settings: 150 mg per day orally in 3 doses
Method: (3) An open investigation covering 80 patients, who were followed in out-patient treatment with 150 mg of benzamide per day, given orally in 3 doses: […]

[11] = BATCH 1, 1 mg/kg I.V., serotonin 37.5 μg/kg I.V.
[12] = BATCH 1, 5 mg/kg I.V., serotonin 25 μg/kg I.V.
[13] = BATCH 2, 1 mg/kg I.V., serotonin 25 μg/kg I.V.
[14] = BATCH 2, 5 mg/kg I.V., serotonin 25 μg/kg I.V.

C=CCN1CCCC1CNC(=O)c1cc(S(=O)(=O)NC)c(N)cc1OC (stereo not shown) [Benzamide according to the invention, N-(1-allyl-2-pyrrolidinyl-methyl)2-methoxy-4-amino-5-methylsulfamoyl benzamide]
maintenance of graph normalisation (cerebral arteries; repeated doses 150 mg/day orally for 3 weeks): maintained | graph of cerebral artery pulsatility (cerebral arteries; single 100 mg intramuscular injection): the graph moves towards normalisation in 2 hours | ED50 (serotonin [1]): ~3 mg/kg | inhibition at 80 mg/kg (mouse [2]; Mus musculus, ip, I.P., 80 mg/kg, WINTER & FLATAKER method, read-out: inhibiting effect on spontaneous motility at maximum dose administered): 26% | inhibition at 300 mg/kg (mouse [2]; Mus musculus, po, P.O., 300 mg/kg, WINTER & FLATAKER method, read-out: inhibiting effect on spontaneous motility at maximum dose administered): 20% | reduction of spontaneous motility (mouse [2]; mouse, even in high doses): only very slightly reduces the spontaneous motility of the mouse | depressive action (central nervous system) (mouse [2]; mouse, in vivo): very little depressive action | contraction inhibiting dose 50 (isolated uterus): ~0.2 mg/L | % inhibition of hypertension after 3 mn (serotonin [3]; [11]): 22% | % inhibition of hypertension after 30 mn (serotonin [3]; [11]): 8% | % inhibition of hypertension after 3 mn (serotonin [3]; [12]): 62% | % inhibition of hypertension after 30 mn (serotonin [3]; [12]): 63% | % inhibition of hypertension after 1 h (serotonin [3]; [12]): 51% | % inhibition of hypertension after 1 h 30 (serotonin [3]; [12]): 51% | % inhibition of hypertension after 2 h (serotonin [3]; [12]): 40% | % inhibition of hypertension after 3 mn (serotonin [3]; [13]): 36% | % inhibition of hypertension after 30 mn (serotonin [3]; [13]): 11% | % inhibition of hypertension after 1 h (serotonin [3]; [13]): 0% | % inhibition of hypertension after 3 mn (serotonin [3]; [14]): 78% | % inhibition of hypertension after 30 mn (serotonin [3]; [14]): 65% | % inhibition of hypertension after 1 h (serotonin [3]; [14]): 48% | % inhibition of hypertension after 1 h 30 (serotonin [3]; [14]): 43% | % inhibition of hypertension after 2 h (serotonin [3]; [14]): 33% | % inhibition of hypertension after 3 h (serotonin [3]; BATCH 2, 5 mg/kg I.V., serotonin 25 μg/kg I.V., 3 h): 33% | hypertensive response to serotonin (serotonin [3]; anaesthetised dog, chlorisondamine): reduces the hypertensive response to serotonin | anticonvulsive action [4]: no anticonvulsive action | anti-histamine properties (histamine): No anti-histamine properties were revealed | hypertensive responses caused by blocking the carotid arteries (carotid arteries; anaesthetised dog): reduces the hypertensive responses | % reduction relative to control hypertension (R) (carotid arteries; cumulative dose 0.5 mg/kg I.V.): 0% | % reduction relative to control hypertension (R) (carotid arteries; cumulative dose 1 mg/kg I.V.): 30% | % reduction relative to control hypertension (R) (carotid arteries; cumulative dose 2 mg/kg I.V.): 43% | % reduction relative to control hypertension (R) (carotid arteries; cumulative dose 4 mg/kg I.V.): 48% | % reduction relative to control hypertension (R) (carotid arteries; cumulative dose 8 mg/kg I.V.): 86% | % reduction relative to control hypertension (R) (carotid arteries; cumulative dose 16 mg/kg I.V.): 90% | % reduction relative to control hypertension (R) (carotid arteries; cumulative dose 32 mg/kg I.V.): 100% | analgesic action (mouse [5]): weak | effectiveness versus Pizotifene (migraine [6]): more effective than the second reference compound | hypertensive responses caused by noradrenalin (noradrenalin; anaesthetised dog): reduces the hypertensive responses | % reduction relative to control hypertension (R) (noradrenalin; cumulative dose 0.5 mg/kg I.V.): 21% | % reduction relative to control hypertension (R) (noradrenalin; cumulative dose 1 mg/kg I.V.): 13% | % reduction relative to control hypertension (R) (noradrenalin; cumulative dose 2 mg/kg I.V.): 30% | % reduction relative to control hypertension (R) (noradrenalin; cumulative dose 4 mg/kg I.V.): 30% | % reduction relative to control hypertension (R) (noradrenalin; cumulative dose 8 mg/kg I.V.): 40% | % reduction relative to control hypertension (R) (noradrenalin; cumulative dose 16 mg/kg I.V.): 49% | % reduction relative to control hypertension (R) (noradrenalin; cumulative dose 32 mg/kg I.V.): 66% | hypotensive response to acetylcholine or to excitation of the vagus nerve [7]: does not change the hypotensive response | % reduction relative to control hypertension (R) (adrenalin; cumulative dose 0.5 mg/kg I.V.): 5% | % reduction relative to control hypertension (R) (adrenalin; cumulative dose 1 mg/kg I.V.): 3% | % reduction relative to control hypertension (R) (adrenalin; cumulative dose 2 mg/kg I.V.): 4% | % reduction relative to control hypertension (R) (adrenalin; cumulative dose 4 mg/kg I.V.): 21% | % reduction relative to control hypertension (R) (adrenalin; cumulative dose 8 mg/kg I.V.): 40% | % reduction relative to control hypertension (R) (adrenalin; cumulative dose 16 mg/kg I.V.): 68% | % reduction relative to control hypertension (R) (adrenalin; cumulative dose 32 mg/kg I.V.): 84% | hypertensive responses caused by adrenalin (adrenalin; anaesthetised dog): reduces the hypertensive responses | Time of hypnosis, mice treated / Time of hypnosis, control mice (mice; I.P., 80 mg/kg, pentobarbital 60 mg/kg intraperitoneally): 1.6 | extension of the duration of barbituric hypnosis (mice; mouse, in vivo): does not extend the duration of barbituric hypnosis | hypertensive responses caused by small doses of nicotine (nicotine; anaesthetised dog): reduces the hypertensive responses | % reduction of orthosympathetic component (R) (nicotine; cumulative dose 0.5 mg/kg I.V.): 0% | % reduction of orthosympathetic component (R) (nicotine; cumulative dose 1 mg/kg I.V.): 0% | % reduction of orthosympathetic component (R) (nicotine; cumulative dose 2 mg/kg I.V.): 0% | % reduction of orthosympathetic component (R) (nicotine; cumulative dose 4 mg/kg I.V.): 0% | % reduction of orthosympathetic component (R) (nicotine; cumulative dose 8 mg/kg I.V.): 0% | % reduction of orthosympathetic component (R) (nicotine; cumulative dose 16 mg/kg I.V.): 49% | % reduction of orthosympathetic component (R) (nicotine; cumulative dose 32 mg/kg I.V.): 79% | therapeutic effectiveness and tolerance versus oxetorone (migraine [8]): statistically superior to oxetorone | inhibition at 80 mg/kg (mouse [9]; ip, I.P., 80 mg/kg): 22% | inhibition at 300 mg/kg (mouse [9]; po, P.O., 300 mg/kg): 25% | remission in particularly severe cases of "accompanied" migraines (migraine [10]): the remission transformed the social life of the patient | General tolerance of the treatment (migraine [10]; 80 patients): very satisfactory | success (migraine [10]; 80 patients): 79%

Reference: patent publication US4550179A, “N-(1-Allyl-2-pyrrolidinyl-methyl) 2-methoxy-4-amino-5-methylsulfamoyl benzamide” (Societe d'Etudes Scientifiques et Industrielles de l'Ile-de …, priority 1980, dated 1985)
